Measured values taken from PubChem BioAssay AID248 (DTP/NCI, 2004).
Several values for one entry are separate records, joined by “and”; a condition that tells them apart may be missing. Equal values may be shown once. Inconclusive results and toxic doses are left out. No stated cut-off is given here; in the data, active means T/C of 150% or more; inactive means T/C below 125%. Square brackets hold non-standard residues; d marks the D form. Peptide text beside a SMILES is read from it. * marks the point of attachment. ξ: configuration not given here. Tos = Cc1ccc(S(=O)(=O)*)cc1; ξY = NC(Cc1ccc(O)cc1)C(=O)O

Test system: L1210 leukemia ip in BDF1 mice, survival T/C
Assay: NCI In Vivo Anticancer Drug Screen. Data for tumor model L1210 Leukemia (intraperitoneal) in B6D2F1 (BDF1) mice
Details: endpoint: mean survival time, higher = longer survival
Method in brief: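 Ratio derived from survival: compound-dosed mice over vehicle-dosed mice, all bearing a transplantable tumor.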

[1] = dose: 100.0 mg/kg/injection, schedule: Q01DX009 (ip), vehicle: saline with Tween-80
[2] = dose: 100.0 mg/kg/injection, schedule: Q04DX003 (ip), vehicle: saline with Tween-80
[3] = dose: 200.0 mg/kg/injection, schedule: Q01DX009 (ip), vehicle: saline with Tween-80
[4] = dose: 200.0 mg/kg/injection, schedule: Q04DX003 (ip), vehicle: saline with Tween-80
[5] = dose: 400.0 mg/kg/injection, schedule: Q01DX009 (ip), vehicle: saline with Tween-80
[6] = dose: 400.0 mg/kg/injection, schedule: Q04DX003 (ip), vehicle: saline with Tween-80
[7] = dose: 150.0 mg/kg/injection, schedule: Q01DX001 (ip), vehicle: saline
[8] = dose: 100.0 mg/kg/injection, schedule: Q04DX003 (ip), vehicle: saline
[9] = dose: 200.0 mg/kg/injection, schedule: Q04DX003 (ip), vehicle: saline
[10] = dose: 100.0 mg/kg/injection, schedule: Q01DX001 (ip), vehicle: Klucel (hydroxypropylcellulose) (HPC)
[11] = dose: 200.0 mg/kg/injection, schedule: Q01DX001 (ip), vehicle: Klucel (hydroxypropylcellulose) (HPC)
[12] = dose: 400.0 mg/kg/injection, schedule: Q01DX001 (ip), vehicle: Klucel (hydroxypropylcellulose) (HPC)

Measured: T/C

Cc1c(Cl)cccc1NC(=O)Nc1cccc(C(F)(F)F)c1
inactive: dose: 100.0 mg/kg/injection, schedule: Q01DX001 (ip), vehicle: saline with Tween-80 87 % of control and 88 % of control | [1] 94 % of control and 104 % of control | dose: 100.0 mg/kg/injection, schedule: Q04DX002 (ip), vehicle: saline with Tween-80 93 % of control and 90 % of control | [2] 94 % of control | dose: 200.0 mg/kg/injection, schedule: Q01DX001 (ip), vehicle: saline with Tween-80 91 % of control | [3] 93 % of control and 97 % of control | dose: 200.0 mg/kg/injection, schedule: Q04DX002 (ip), vehicle: saline with Tween-80 88 % of control and 89 % of control | [4] 97 % of control | dose: 400.0 mg/kg/injection, schedule: Q01DX001 (ip), vehicle: saline with Tween-80 94 % of control and 89 % of control | [5] 100 % of control and 104 % of control | dose: 400.0 mg/kg/injection, schedule: Q04DX002 (ip), vehicle: saline with Tween-80 100 % of control and 90 % of control | [6] 96 % of control

Clc1ccccc1OCC1CO1 (stereo not given)
inactive: [1] 93 % of control | [2] 98 % of control | [3] 100 % of control | [4] 98 % of control | [5] 97 % of control | [6] 103 % of control

CN(C)CCP(=O)(O)O
inactive: [1] 96 % of control | [3] 95 % of control | [5] 91 % of control

COC(=O)C(Cc1ccc(O)cc1)NC(=O)CNS(=O)(=O)c1ccc(C)cc1 (stereo not drawn) (Tos-Gly-[ξY]-OMe)
inactive: dose: 100.0 mg/kg/injection, schedule: Q04DX003 (ip), vehicle: other 105 % of control | dose: 200.0 mg/kg/injection, schedule: Q04DX003 (ip), vehicle: other 94 % of control | dose: 400.0 mg/kg/injection, schedule: Q04DX003 (ip), vehicle: other 104 % of control

CCCCC(=O)NC1CCCCC1
inactive: dose: 75.0 mg/kg/injection, schedule: Q01DX001 (ip), vehicle: saline 101 % of control | [7] 95 % of control

CCCCCCCCc1nc2c(c(=O)n(C)c(=O)n2C)n1C
inactive: dose: 45.0 mg/kg/injection, schedule: Q01DX001 (ip), vehicle: saline 95 % of control and 101 % of control | dose: 67.0 mg/kg/injection, schedule: Q01DX001 (ip), vehicle: saline 101 % of control and 104 % of control | dose: 100.0 mg/kg/injection, schedule: Q01DX001 (ip), vehicle: saline 97 % of control and 104 % of control | [7] 95 % of control and 101 % of control

CC(CC12CC3CC(CC(C3)C1)C2)NN (stereo not given)
inactive: dose: 25.0 mg/kg/injection, schedule: Q04DX002 (ip), vehicle: Klucel (hydroxypropylcellulose) (HPC) 101 % of control | dose: 50.0 mg/kg/injection, schedule: Q04DX002 (ip), vehicle: Klucel (hydroxypropylcellulose) (HPC) 86 % of control

Nc1[nH]c(=S)[nH]c(=O)c1NC=O
inactive: dose: 16.0 mg/kg/injection, schedule: Q01DX Z (ip), vehicle: methylcellulose (MC) 103 % of control | dose: 31.0 mg/kg/injection, schedule: Q01DX Z (ip), vehicle: methylcellulose (MC) 106 % of control | dose: 62.0 mg/kg/injection, schedule: Q01DX Z (ip), vehicle: methylcellulose (MC) 108 % of control | dose: 125.0 mg/kg/injection, schedule: Q01DX Z (ip), vehicle: methylcellulose (MC) 96 % of control and 97 % of control | dose: 250.0 mg/kg/injection, schedule: Q01DX Z (ip), vehicle: methylcellulose (MC) 100 % of control | dose: 500.0 mg/kg/injection, schedule: Q01DX Z (ip), vehicle: methylcellulose (MC) 112 % of control

CC12CCC(O)C(C)(C)C1=C(O)C(=O)C1=C2C(=O)CC2(C)C(=O)CCC12C (stereo not given)
inactive: [8] 93 % of control | [9] 93 % of control | dose: 400.0 mg/kg/injection, schedule: Q04DX003 (ip), vehicle: saline 98 % of control

CC(C)c1cc[n+]([O-])cc1
inactive: dose: 50.0 mg/kg/injection, schedule: Q01DX009 (ip), vehicle: saline with Tween-80 94 % of control | [1] 94 % of control | [3] 91 % of control

CC1=C(C)C(=O)C(CC2=C(C)C(=O)C(C)=C(C)C2=O)=C(C)C1=O
inactive: dose: 100.0 mg/kg/injection, schedule: Q01DX005 (ip), vehicle: saline with Tween-80 101 % of control | [1] 96 % of control | dose: 200.0 mg/kg/injection, schedule: Q01DX005 (ip), vehicle: saline with Tween-80 96 % of control | [3] 100 % of control | dose: 400.0 mg/kg/injection, schedule: Q01DX005 (ip), vehicle: saline with Tween-80 104 % of control | [5] 96 % of control

CCOC(=O)C(C(=O)CC)=P(c1ccccc1)(c1ccccc1)c1ccccc1
inactive: dose: 100.0 mg/kg/injection, schedule: Q01DX005 (ip), vehicle: Klucel (hydroxypropylcellulose) (HPC) 113 % of control | dose: 100.0 mg/kg/injection, schedule: Q01DX009 (ip), vehicle: Klucel (hydroxypropylcellulose) (HPC) 97 % of control | dose: 200.0 mg/kg/injection, schedule: Q01DX005 (ip), vehicle: Klucel (hydroxypropylcellulose) (HPC) 88 % of control | dose: 200.0 mg/kg/injection, schedule: Q01DX009 (ip), vehicle: Klucel (hydroxypropylcellulose) (HPC) 108 % of control | dose: 400.0 mg/kg/injection, schedule: Q01DX005 (ip), vehicle: Klucel (hydroxypropylcellulose) (HPC) 98 % of control | dose: 400.0 mg/kg/injection, schedule: Q01DX009 (ip), vehicle: Klucel (hydroxypropylcellulose) (HPC) 110 % of control

CC(C)=NNC(=O)CNc1cccc(C(F)(F)F)c1
inactive: dose: 100.0 mg/kg/injection, schedule: Q04DX002 (ip), vehicle: Klucel (hydroxypropylcellulose) (HPC) 107 % of control | dose: 200.0 mg/kg/injection, schedule: Q04DX002 (ip), vehicle: Klucel (hydroxypropylcellulose) (HPC) 110 % of control | dose: 400.0 mg/kg/injection, schedule: Q04DX002 (ip), vehicle: Klucel (hydroxypropylcellulose) (HPC) 100 % of control

COc1cc2c(cc1C)OC(C)(CC(=O)O)C2 (stereo not given)
inactive: [10] 103 % of control | [11] 96 % of control | [12] 96 % of control

OCCSC1=NCCN1
inactive: dose: 100.0 mg/kg/injection, schedule: Q01DX001 (ip), vehicle: carboxymethylcellulose (CMC) 97 % of control | [8] 109 % of control | dose: 200.0 mg/kg/injection, schedule: Q01DX001 (ip), vehicle: carboxymethylcellulose (CMC) 100 % of control | [9] 103 % of control | dose: 400.0 mg/kg/injection, schedule: Q01DX001 (ip), vehicle: carboxymethylcellulose (CMC) 94 % of control

N=C(N)c1cccc(OCCCc2ccccc2)c1
inactive: [10] 100 % of control | [11] 97 % of control | [12] 100 % of control

COC(=O)C1C=C2c3cccc4[nH]cc(c34)CC2N(C#N)C1 (stereo not given)
inactive: dose: 25.0 mg/kg/injection, schedule: Q04DX003 (ip), vehicle: alcohol 91 % of control | dose: 50.0 mg/kg/injection, schedule: Q04DX003 (ip), vehicle: alcohol 100 % of control | dose: 100.0 mg/kg/injection, schedule: Q04DX003 (ip), vehicle: alcohol 96 % of control | dose: 200.0 mg/kg/injection, schedule: Q04DX003 (ip), vehicle: alcohol 93 % of control | dose: 400.0 mg/kg/injection, schedule: Q04DX003 (ip), vehicle: alcohol 94 % of control

C=CC(=C)OC
inactive: dose: 25.0 mg/kg/injection, schedule: Q01DX005 (ip), vehicle: saline 117 % of control | dose: 50.0 mg/kg/injection, schedule: Q01DX005 (ip), vehicle: saline 113 % of control | dose: 100.0 mg/kg/injection, schedule: Q01DX005 (ip), vehicle: saline 111 % of control | dose: 200.0 mg/kg/injection, schedule: Q01DX005 (ip), vehicle: saline 107 % of control | dose: 400.0 mg/kg/injection, schedule: Q01DX005 (ip), vehicle: saline 111 % of control
